Laboratory results reported in patent US20240325544A1, “CATIONIC LIPID FOR COVALENT MODIFICATION OF PEPTIDES” (PharmalN Corporation, priority 2023, published 2024).
Bridge positions count the residues as written; N and C are the ends. Square brackets hold non-standard residues; d marks the D form. Peptide text beside a SMILES is read from it. * marks the point of attachment. Palmitoyl = CCCCCCCCCCCCCCCC(=O)*; Dap = NC[C@H](N)C(=O)O; AEEA = NCCOCCOCC(=O)O

Molecular target: T1, human NPRC (Homo sapiens, UniProt P17342)
T1 construct: NPRC Q1-S434, (GenBank Accn. #NP_001191304.1); made in house; host or cells: Expi293 cells
T1 sequence (P17342 43-476 limits assumed): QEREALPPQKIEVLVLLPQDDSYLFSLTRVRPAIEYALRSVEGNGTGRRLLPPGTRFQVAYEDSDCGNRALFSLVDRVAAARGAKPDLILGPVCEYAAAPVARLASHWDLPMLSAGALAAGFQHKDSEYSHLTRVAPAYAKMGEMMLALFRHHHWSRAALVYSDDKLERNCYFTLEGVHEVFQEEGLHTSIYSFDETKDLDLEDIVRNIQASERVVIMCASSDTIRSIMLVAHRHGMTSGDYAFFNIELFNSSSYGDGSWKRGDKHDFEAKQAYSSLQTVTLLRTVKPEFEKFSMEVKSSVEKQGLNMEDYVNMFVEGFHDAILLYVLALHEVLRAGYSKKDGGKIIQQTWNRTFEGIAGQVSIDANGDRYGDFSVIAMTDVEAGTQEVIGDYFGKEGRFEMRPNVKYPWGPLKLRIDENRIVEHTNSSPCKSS
Assay: Fluorescence polarization (FP) assay with CNP-F* probe, NPRC
Assay type: binding
Settings: 150 nM test article, 5 nM CNP-F*, 50 nM human NPRC
Method: Error bars represent standard error of the mean. […] NO.
In the presence of [SEQ ID.
The CNP-F* probe was incubated at a final concentration of 5 nM in the presence of 50 nM human NPRB or NPRC in an assay buffer containing PBS, pH 7.4 and 0.01% Triton X-100. A […] volume of CNP-F* probe and NPR were dispensed into a black 96-well Costar flat-bottom polystyrene plate prior to FP measurement. Next, […] volume of SEQ ID. No. 31 (final concentration 150 nM) was added to the premixed probe and NPR. The plate was incubated at room temperature for 10 min. Fluorescence polarization was then measured on Flexstation 3 (excitation wavelength: 480 nm; emission wavelength: 525 nm and cutoff at 515 nm).
CNP-F* was prepared using solid phase peptide synthesis. […] Next, the crude linear peptide was cleavage with 95% TFA in the presence of carbocation scavengers and ether precipitation.

## CCCCCCCCCCCCCCCC(=O)NCCOCCOCC(=O)NCCOCCOCC(=O)NCCOCCOCC(=O)N[C@@H](CN)C(=O)N[C@@H](CN)C(=O)NCC(=O)N[C@@H](CC(C)C)C(=O)N[C@@H](CO)C(=O)N[C@@H](CCCCN)C(=O)NCC(=O)N[C@H]1CSSC[C@@H](C(=O)O)NC(=O)CNC(=O)[C@H](CC(C)C)NC(=O)CNC(=O)[C@H](CO)NC(=O)[C@H](CCC(N)=O)NC(=O)[C@H](CO)NC(=O)CNC(=O)[C@H]([C@@H](C)CC)NC(=O)[C@H](CCCNC(=N)N)NC(=O)[C@H](CC(=O)O)NC(=O)[C@H](CC(C)C)NC(=O)[C@H](CCCCN)NC(=O)[C@H](CC(C)C)NC(=O)CNC(=O)[C@H](Cc2ccccc2)NC1=O [SEQ ID NO: 31] ({Palmitoyl-AEEA-AEEA-AEEA}-[Dap][Dap]GLSKGCFGLKLDRIGSQSGLGC-OH; disulfide 8-24; C-terminus assumed)
  Binding to NPRC (FP signal of CNP-F* probe): low FP signal demonstrates binding
